From PubChem BioAssay AID2060499 (Molecular Pharmacology Branch, DTP, NCI, 2025)
pIC50: −log10 of the molar value.

System: 777334-354-R2-J4-PDC tumor spheroids with HUVEC/MSC, viability
Test: Anticancer human tumor 777334-354-R2-J4-PDC patient-derived pancreatic adenocarcinoma cell line growth inhibition [GQUAD]
Conditions: for pIC50: curve of first compound; for viability, T/C: stronger effect = lower value
Summary of the method: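 Tumor cells were grown as complex spheroids with HUVEC endothelial cells and mesenchymal stem cells as stroma. G-quadruplex stabilizers were combined with targeted agents over half-log dilutions from near the clinical Cmax, or from 10 microM.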

[1] = second compound 0.0316 µM, first compound 0.0316 µM
[2] = second compound 0.0316 µM, first compound 0.1 µM
[3] = second compound 0.0316 µM, first compound 0.316 µM
[4] = second compound 0.0316 µM, first compound 1 µM
[5] = second compound 0.0316 µM, first compound 3.16 µM
[6] = second compound 0.0316 µM, first compound 10 µM
[7] = second compound 0.1 µM, first compound 0.0316 µM
[8] = second compound 0.1 µM, first compound 0.1 µM
[9] = second compound 0.1 µM, first compound 0.316 µM
[10] = second compound 0.1 µM, first compound 1 µM
[11] = second compound 0.1 µM, first compound 3.16 µM
[12] = second compound 0.1 µM, first compound 10 µM
[13] = second compound 0.316 µM, first compound 0.0316 µM
[14] = second compound 0.316 µM, first compound 0.1 µM
[15] = second compound 0.316 µM, first compound 0.316 µM
[16] = second compound 0.316 µM, first compound 1 µM
[17] = second compound 0.316 µM, first compound 3.16 µM
[18] = second compound 0.316 µM, first compound 10 µM
[19] = second compound 1 µM, first compound 0.0316 µM
[20] = second compound 1 µM, first compound 0.1 µM
[21] = second compound 1 µM, first compound 0.316 µM
[22] = second compound 1 µM, first compound 1 µM
[23] = second compound 1 µM, first compound 3.16 µM
[24] = second compound 1 µM, first compound 10 µM
[25] = second compound 3.16 µM, first compound 0.0316 µM
[26] = second compound 3.16 µM, first compound 0.1 µM
[27] = second compound 3.16 µM, first compound 0.316 µM
[28] = second compound 3.16 µM, first compound 1 µM
[29] = second compound 3.16 µM, first compound 3.16 µM
[30] = second compound 3.16 µM, first compound 10 µM
[31] = second compound 10 µM, first compound 0.0316 µM
[32] = second compound 10 µM, first compound 0.1 µM
[33] = second compound 10 µM, first compound 0.316 µM
[34] = second compound 10 µM, first compound 1 µM
[35] = second compound 10 µM, first compound 3.16 µM
[36] = second compound 10 µM, first compound 10 µM
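Also: spheroids exposed to compounds for 7 days before readout.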

COc1cc(C2c3cc4c(cc3C(OC3OC5COC(C)OC5C(O)C3O)C3COC(=O)C23)OCO4)cc(OC)c1O (stereo unspecified) + Cc1cnc(CNC(=O)c2c(=O)c3ccc(N4CCCN(C)CC4)nc3n3c2sc2ccccc23)cn1
pIC50 (second compound 0.0316 µM): 5.21
pIC50 (second compound 0.1 µM): 5.35
pIC50 (second compound 0.316 µM): 5.43
pIC50 (second compound 1 µM): 5.29
pIC50 (second compound 3.16 µM): 5.60
pIC50 (second compound 10 µM): 5.54
viability, T/C [1]: 94.8%
viability, T/C [2]: 90.6%
viability, T/C [3]: 85.2%
viability, T/C [4]: 70.9%
viability, T/C [5]: 54.7%
viability, T/C [6]: 46.6%
viability, T/C [7]: 84.6%
viability, T/C [8]: 78.5%
viability, T/C [9]: 79.6%
viability, T/C [10]: 73.4%
viability, T/C [11]: 56.1%
viability, T/C [12]: 34.9%
viability, T/C [13]: 79.3%
viability, T/C [14]: 85%
viability, T/C [15]: 77%
viability, T/C [16]: 72.7%
viability, T/C [17]: 51.4%
viability, T/C [18]: 39.7%
viability, T/C [19]: 68.4%
viability, T/C [20]: 75.2%
viability, T/C [21]: 76.1%
viability, T/C [22]: 64%
viability, T/C [23]: 60%
viability, T/C [24]: 37.5%
viability, T/C [25]: 57.1%
viability, T/C [26]: 64.5%
viability, T/C [27]: 61.6%
viability, T/C [28]: 61.1%
viability, T/C [29]: 47.1%
viability, T/C [30]: 40.7%
viability, T/C [31]: 58.6%
viability, T/C [32]: 57.3%
viability, T/C [33]: 55.2%
viability, T/C [34]: 52%
viability, T/C [35]: 51.5%
viability, T/C [36]: 34.7%

CC1COCCN1c1cc(C2(S(C)(=N)=O)CC2)nc(-c2ccnc3[nH]ccc23)n1 (stereo unspecified) + CN(C)c1ccc(Nc2c3ccc(NC(=O)CCN4CCCC4)cc3nc3cc(NC(=O)CCN4CCCC4)ccc23)cc1
pIC50 (second compound 0.0316 µM): < 5.00
pIC50 (second compound 0.1 µM): < 5.00
pIC50 (second compound 0.316 µM): < 5.00
pIC50 (second compound 1 µM): 5.05
pIC50 (second compound 3.16 µM): 5.11
pIC50 (second compound 10 µM): 5.05
viability, T/C [1]: 89%
viability, T/C [2]: 85.8%
viability, T/C [3]: 98.5%
viability, T/C [4]: 86.8%
viability, T/C [5]: 79.3%
viability, T/C [6]: 58.3%
viability, T/C [7]: 107%
viability, T/C [8]: 84.6%
viability, T/C [9]: 98.2%
viability, T/C [10]: 95.2%
viability, T/C [11]: 79.7%
viability, T/C [12]: 57.1%
viability, T/C [13]: 92.5%
viability, T/C [14]: 95.9%
viability, T/C [15]: 100%
viability, T/C [16]: 82.9%
viability, T/C [17]: 85.2%
viability, T/C [18]: 50.5%
viability, T/C [19]: 90.5%
viability, T/C [20]: 79.8%
viability, T/C [21]: 74.7%
viability, T/C [22]: 83.9%
viability, T/C [23]: 79.5%
viability, T/C [24]: 46.9%
viability, T/C [25]: 80.5%
viability, T/C [26]: 82.6%
viability, T/C [27]: 86.8%
viability, T/C [28]: 78.6%
viability, T/C [29]: 67.7%
viability, T/C [30]: 45.1%
viability, T/C [31]: 82.3%
viability, T/C [32]: 78.3%
viability, T/C [33]: 72.7%
viability, T/C [34]: 67.7%
viability, T/C [35]: 65.2%
viability, T/C [36]: 47.5%

COc1cccc2c1C(=O)c1c(O)c3c(c(O)c1C2=O)CC(O)(C(=O)CO)CC3OC1CC(N)C(O)C(C)O1 (stereo unspecified) + Cc1[nH]c2ccc(F)cc2c1-c1nc2c3cccnc3c3ncccc3c2[nH]1
pIC50 (second compound 0.0316 µM): 6.04
pIC50 (second compound 0.1 µM): 6.06
pIC50 (second compound 0.316 µM): 6.03
pIC50 (second compound 1 µM): 6.19
pIC50 (second compound 3.16 µM): > 7.50
pIC50 (second compound 10 µM): > 7.50
viability, T/C [1]: 102%
viability, T/C [2]: 83.2%
viability, T/C [3]: 80.3%
viability, T/C [4]: 47.1%
viability, T/C [5]: 22.8%
viability, T/C [6]: 15%
viability, T/C [7]: 93.3%
viability, T/C [8]: 80.5%
viability, T/C [9]: 69.6%
viability, T/C [10]: 49.2%
viability, T/C [11]: 25.2%
viability, T/C [12]: 14.9%
viability, T/C [13]: 74.8%
viability, T/C [14]: 82.6%
viability, T/C [15]: 71.2%
viability, T/C [16]: 46.8%
viability, T/C [17]: 28.4%
viability, T/C [18]: 17.4%
viability, T/C [19]: 74.8%
viability, T/C [20]: 75.8%
viability, T/C [21]: 61.1%
viability, T/C [22]: 42.9%
viability, T/C [23]: 22.5%
viability, T/C [24]: 13.6%
viability, T/C [25]: 40.4%
viability, T/C [26]: 27.8%
viability, T/C [27]: 24.8%
viability, T/C [28]: 16.7%
viability, T/C [29]: 13.9%
viability, T/C [30]: 9.55%
viability, T/C [31]: 32%
viability, T/C [32]: 23%
viability, T/C [33]: 22.6%
viability, T/C [34]: 16.5%
viability, T/C [35]: 14.9%
viability, T/C [36]: 10.9%
